Results reported in US20240368120A1 (Terns Pharmaceuticals, Inc., priority 2023, published 2024).

Molecular target: T1, human GLP-1R receptor (Homo sapiens, UniProt P43220)
T1 construct: expressed in transfected cells
Assay: GLP-1R low expression cell assay (cAMP TR-FRET, CHO-K1_hGLP-1Rlow_clone10 cells)
Format: cell-based
Conditions: for EC50: cAMP TR-FRET, 30 min at 25° C.; for Emax: maximum activation relative to control GLP-1 peptide agonist
How it was run: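 Readout is cAMP TR-FRET after 30 min compound stimulation at 25 °C of a low-GLP-1R-expressing CHO-K1 clone (1,000 cells/well), with 10-point 3-fold serial dilutions. Percent activation versus a control GLP-1 peptide, from duplicates, was Hill-fitted to give EC50.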

T1 sequence (P43220 24-463): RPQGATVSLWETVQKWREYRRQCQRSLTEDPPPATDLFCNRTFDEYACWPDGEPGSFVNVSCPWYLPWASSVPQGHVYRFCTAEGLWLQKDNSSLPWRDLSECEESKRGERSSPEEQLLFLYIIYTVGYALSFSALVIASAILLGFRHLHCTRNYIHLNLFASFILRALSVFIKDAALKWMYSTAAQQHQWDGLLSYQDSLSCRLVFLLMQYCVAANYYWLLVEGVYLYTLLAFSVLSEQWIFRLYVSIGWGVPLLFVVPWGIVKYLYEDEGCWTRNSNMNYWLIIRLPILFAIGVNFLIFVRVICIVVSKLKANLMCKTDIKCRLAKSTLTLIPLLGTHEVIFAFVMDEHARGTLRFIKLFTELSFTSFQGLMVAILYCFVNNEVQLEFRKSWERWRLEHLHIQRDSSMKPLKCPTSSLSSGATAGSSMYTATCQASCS

Row | EC50 [nM] | Emax [%] | Compound
1 | > 1000 | 50 to 85 | Cn1c(CN2CCC(c3cccc(OCc4ccc(Cl)cc4F)n3)CC2)nc2c(O)c(C(=O)O)ccc21 [Compound 345, 2-((4-(6-((4-Chloro-2-fluorobenzyl)oxy)pyridin-2-yl)piperidin-1-yl)methyl)-4-hydroxy-1-methyl-1H-benzo[d]imidazole-5-carboxylic acid]
2 | > 1000 | < 25 | Cn1c(CN2CCC(c3ccc4c(c3)N(Cc3ccc(Cl)cc3F)C(=O)CO4)CC2)nc2c(OC(F)F)cc(C(=O)O)cc21 [Compound 193, 2-((4-(4-(4-chloro-2-fluorobenzyl)-3-oxo-3,4-dihydro-2H-benzo[b][1,4]oxazin-6-yl)piperidin-1-yl)methyl)-4-(difluoromethoxy)-1-methyl-1H-benzo[d]imidazole-6-carboxylic acid]
3 | > 1000 | < 25 | CN1C(=O)[C@@H](c2ccc(Cl)cc2F)Oc2c(C3CCN(Cc4nc5c(OC(F)F)cc(C(=O)O)cc5n4C)CC3)cccc21 [Compound 240, (R)-2-((4-(2-(4-chloro-2-fluorophenyl)-4-methyl-3-oxo-3,4-dihydro-2H-benzo[b][1,4]oxazin-8-yl)piperidin-1-yl)methyl)-4-(difluoromethoxy)-1-methyl-1H-benzo[d]imidazole-6-carboxylic acid]
4 | < 10 | > 85 | Cn1c(CN2CCC(c3cccc(OCc4ccc(Cl)cc4F)n3)CC2)nc2c(OC(F)CF)cc(C(=O)O)cc21 (single isomer, unassigned) [Compound 329]
5 | > 1000 | < 25 | Cn1c(CN2CCC(c3cccc(OCc4ccc(Cl)cc4F)n3)CC2)nc2c(OC(F)F)cc(-c3n[nH]c(=O)o3)cc21 [Compound 234, 5-(2-((4-(6-((4-Chloro-2-fluorobenzyl)oxy)pyridin-2-yl)piperidin-1-yl)methyl)-4-(difluoromethoxy)-1-methyl-1H-benzo[d]imidazol-6-yl)-1,3,4-oxadiazol-2 (3H)-one]
6 | 10 to 100 | 50 to 85 | COc1cc(C#CC(=O)O)cc2c1nc(CN1CCC(c3cccc(OCc4ccc(Cl)cc4F)n3)CC1)n2C[C@@H]1CCO1 [Compound 257, (S)-3-(2-((4-(6-((4-Chloro-2-fluorobenzyl)oxy)pyridin-2-yl)piperidin-1-yl)methyl)-4-methoxy-1-(oxetan-2-ylmethyl)-1H-benzo[d]imidazol-6-yl) propiolic acid]
7 | 100 to 1000 | > 85 | Cn1c(CN2CCC(c3cccc(OCc4ccc(OC(F)(F)F)cc4F)n3)CC2)nc2c(OC(F)F)cc(C(=O)O)cc21 [Compound 222]
8 | 10 to 100 | > 85 | CCOc1cc(-c2cc(=O)[nH]o2)cc2c1nc(CN1CCC(c3cccc(OCc4ccc(C#N)cc4F)n3)CC1)n2C [Compound 384, 4-(((6-(1-((4-Ethoxy-1-methyl-6-(3-oxo-2,3-dihydroisoxazol-5-yl)-1H-benzo[d]imidazol-2-yl)methyl)piperidin-4-yl)pyridin-2-yl)oxy)methyl)-3-fluorobenzonitrile]
9 | 100 to 1000 | 50 to 85 | Cn1c(CN2CCC(c3cccc(OCc4ccc(Cl)cc4F)n3)CC2)nc2c(OC(F)F)cc(-c3cc(O)no3)cc21 [Compound 316, 5-(2-((4-(6-((4-Chloro-2-fluorobenzyl)oxy)pyridin-2-yl)piperidin-1-yl)methyl)-4-(difluoromethoxy)-1-methyl-1H-benzo[d]imidazol-6-yl) isoxazol-3-ol]
10 | 10 to 100 | > 85 | C[C@@H](F)Oc1cc(C(=O)O)cc2c1nc(CN1CCC(c3cccc(OCc4ccc(Cl)cc4F)n3)CC1)n2C (single isomer, unassigned) [Compound 361]
11 | 100 to 1000 | > 85 | Cn1c(CN2CCC(c3cccc(OCc4ccc(Cl)cc4F)n3)CC2)nc2ccc(C(=O)O)c(O)c21 [Compound 341, 2-((4-(6-((4-Chloro-2-fluorobenzyl)oxy)pyridin-2-yl)piperidin-1-yl)methyl)-7-hydroxy-1-methyl-1H-benzo[d]imidazole-6-carboxylic acid]
12 | 10 to 100 | > 85 | Cn1c(CN2CCC(c3cccc(OCc4ccc(Cl)c5c4OCC5)n3)CC2)nc2c(OC(F)F)cc(C(=O)O)cc21 [Compound 331, 2-((4-(6-((4-Chloro-2,3-dihydrobenzofuran-7-yl)methoxy)pyridin-2-yl)piperidin-1-yl)methyl)-4-(difluoromethoxy)-1-methyl-1H-benzo[d]imidazole-6-carboxylic acid]
13 | 100 to 1000 | 50 to 85 | Cn1c(CN2CCC(c3cccc(OCc4ccc(Cl)cc4F)n3)CC2)nc2c(OC(F)F)cc(NCC(=O)O)cc21 [Compound 255, (2-((4-(6-((4-chloro-2-fluorobenzyl)oxy)pyridin-2-yl)piperidin-1-yl)methyl)-4-(difluoromethoxy)-1-methyl-1H-benzo[d]imidazol-6-yl)glycine]
14 | > 1000 | < 25 | COc1ccc(C2CCN(Cc3nc4c(OC(F)F)cc(C(=O)O)cc4n3C)CC2)cc1OCc1ccc(Cl)cc1F [Compound 230, 2-((4-(3-((4-Chloro-2-fluorobenzyl)oxy)-4-methoxyphenyl)piperidin-1-yl)methyl)-4-(difluoromethoxy)-1-methyl-1H-benzo[d]imidazole-6-carboxylic acid]

Continued, compound first:

Row | Compound | EC50 [nM] | Emax [%]
15 | Cn1c(CN2CCC(c3cccc(OCc4ccc(C#N)cc4F)n3)CC2)nc2c(OCC(F)(F)F)cc(C(=O)O)cc21 [Compound 121, 2-((4-(6-((4-Cyano-2-fluorobenzyl)oxy)pyridin-2-yl)piperidin-1-yl)methyl)-1-methyl-4-(2,2,2-trifluoroethoxy)-1H-benzo[d]imidazole-6-carboxylic acid] | < 10 | > 85
16 | C[C@@H](c1nc2c(OC(F)F)cc(C(=O)O)cc2n1C)N1CCC(c2cccc(OCc3ccc(C#N)cc3F)n2)CC1 [Compound 119, (S)-2-(1-(4-(6-((4-Cyano-2-fluorobenzyl)oxy)pyridin-2-yl)piperidin-1-yl)ethyl)-4-(difluoromethoxy)-1-methyl-1H-benzo[d]imidazole-6-carboxylic acid] | 10 to 100 | 50 to 85
17 | C[C@@H](Oc1ccccc1C1CCN(Cc2nc3c(OC(F)F)cc(C(=O)O)cc3n2C)CC1)c1ccc(C#N)cc1F (single isomer, unassigned) [Compound 173] | > 1000 | < 25
18 | Cn1c(CN2CCC(c3cccc(OCc4ccc(C#N)cc4F)n3)CC2)nc2c(OC(C)(C)C)cc(C(=O)O)cc21 [Compound 135, 4-(tert-Butoxy)-2-((4-(6-((4-cyano-2-fluorobenzyl)oxy)pyridin-2-yl)piperidin-1-yl)methyl)-1-methyl-1H-benzo[d]imidazole-6-carboxylic acid] | 100 to 1000 | > 85
19 | Cn1c(CN2CCC(c3c(F)cccc3OCc3ccc(C#N)cc3F)CC2)nc2c(OC(F)F)cc(C(=O)O)cc21 [Compound 146, 2-((4-(2-((4-Cyano-2-fluorobenzyl)oxy)-6-fluorophenyl)piperidin-1-yl)methyl)-4-(difluoromethoxy)-1-methyl-1H-benzo[d]imidazole-6-carboxylic acid] | > 1000 | 50 to 85
20 | N#Cc1ccc(COc2cccc(C3CCN(Cc4nc5c(O)nc(C(=O)O)cc5n4C[C@@H]4CCO4)CC3)n2)c(F)c1 [Compound 143, (S)-2-((4-(6-((4-Cyano-2-fluorobenzyl)oxy)pyridin-2-yl)piperidin-1-yl)methyl)-4-hydroxy-1-(oxetan-2-ylmethyl)-1H-imidazo[4,5-c]pyridine-6-carboxylic acid] | < 10 | > 85
21 | O=C(O)c1ccc2c(nc(CN3CCC(c4cccc(OCc5ccc(Cl)cc5F)n4)CC3)n2C[C@@H]2CCO2)c1OC(F)F [Compound 191, (S)-2-((4-(6-((4-chloro-2-fluorobenzyl)oxy)pyridin-2-yl)piperidin-1-yl)methyl)-4-(difluoromethoxy)-1-(oxetan-2-ylmethyl)-1H-benzo[d]imidazole-5-carboxylic acid] | 100 to 1000 | > 85
22 | Cn1c(CN2CCC(c3cc(OCc4ccc(C#N)cc4F)ccc3F)CC2)nc2c(OC(F)F)cc(C(=O)O)cc21 [Compound 181, 2-((4-(5-((4-Cyano-2-fluorobenzyl)oxy)-2-fluorophenyl)piperidin-1-yl)methyl)-4-(difluoromethoxy)-1-methyl-1H-benzo[d]imidazole-6-carboxylic acid] | > 1000 | 50 to 85
23 | COc1cc(C(=O)O)cc2c1nc([C@@H](C)N1CCC(c3cccc(OCc4ccc(C#N)cc4F)n3)CC1)n2C [Compound 103, (R)-2-(1-(4-(6-((4-Cyano-2-fluorobenzyl)oxy)pyridin-2-yl)piperidin-1-yl)ethyl)-4-methoxy-1-methyl-1H-benzo[d]imidazole-6-carboxylic acid] | > 1000 | 50 to 85
24 | COCCOc1cc(C(=O)O)cc2c1nc(CN1CCC(c3cccc4c3O[C@@](C)(c3ccc(Cl)cn3)O4)CC1)n2Cc1cncs1 [Compound 2, (S)-2-((4-(2-(5-Chloropyridin-2-yl)-2-methylbenzo[d][1,3]dioxol-4-yl)piperidin-1-yl)methyl)-4-(2-methoxyethoxy)-1-(thiazol-5-ylmethyl)-1H-benzo[d]imidazole-6-carboxylic acid] | < 10 | > 85
25 | Cn1c(CN2CCC(c3cccc(OCc4ccc(Cl)cc4F)n3)CC2)nc2c(OC(F)F)cc(C(=O)O)c(F)c21 [Compound 190, 2-((4-(6-((4-Chloro-2-fluorobenzyl)oxy)pyridin-2-yl)piperidin-1-yl)methyl)-4-(difluoromethoxy)-7-fluoro-1-methyl-1H-benzo[d]imidazole-6-carboxylic acid] | 10 to 100 | > 85
26 | COCCOc1cc(C(=O)O)cc2nc(CN3CCC(c4cccc5c4O[C@@](C)(c4ccc(Cl)cn4)O5)CC3)n(C)c12 [Compound 76, (S)-2-((4-(2-(5-Chloropyridin-2-yl)-2-methylbenzo[d][1,3]dioxol-4-yl)piperidin-1-yl)methyl)-7-(2-methoxyethoxy)-1-methyl-1H-benzo[d]imidazole-5-carboxylic acid] | > 1000 | 50 to 85
